Results as given in ChEMBL document CHEMBL1123973, “Renin inhibitors containing hydrophilic groups. Tetrapeptides with enhanced aqueous solubility and nanomolar potency” (J Med Chem, 1988).
Converted amounts (≈) assume the structure as drawn. *1 amine or outer side, *2 acyl side, *3 side chain or, on linkers, in order; H or OH if unused. Where a SMILES comes first, the peptide text is derived from it. [ ]: non-standard residue; d: D form. The star is where a group is joined. ξ: configuration not given here. X1 = CC(C)CC(N[*:1])C(O)CC(=O)[*:2]; ξPhg = NC(C(=O)O)c1ccccc1; Boc = CC(C)(C)OC(=O)*

Key:
physchem [1] = settings: S
physchem [2] = settings: phosphate buffer, pH 7.4, S
Description: Solubility (phosphate buffer, pH 7.4)

[3] = biological target: Renin (Canis lupus familiaris); assay: Inhibition of renin
[4] = Partition coefficient (logD) (octanol/citric acid-phosphate buffer)
Renin = biological target: T1, Renin (Homo sapiens, UniProt P00797); assay: Concentration required for 50% inhibition of human plasma renin; type: cell-free
T1 sequence (P00797 whole entry): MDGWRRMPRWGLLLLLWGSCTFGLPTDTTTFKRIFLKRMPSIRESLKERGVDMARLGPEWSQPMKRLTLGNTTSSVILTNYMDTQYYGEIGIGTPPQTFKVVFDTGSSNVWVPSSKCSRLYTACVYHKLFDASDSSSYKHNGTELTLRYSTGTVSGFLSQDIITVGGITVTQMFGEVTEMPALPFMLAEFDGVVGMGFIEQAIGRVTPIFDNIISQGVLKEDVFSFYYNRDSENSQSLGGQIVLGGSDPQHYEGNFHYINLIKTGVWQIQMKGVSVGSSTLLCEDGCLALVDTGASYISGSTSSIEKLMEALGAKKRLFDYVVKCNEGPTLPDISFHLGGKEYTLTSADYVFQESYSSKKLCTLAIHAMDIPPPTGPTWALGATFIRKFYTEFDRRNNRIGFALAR

Renin (Sus scrofa) = assay: Inhibition of porcine kidney renin
[5] = system: Renin (Canis lupus familiaris); assay: Concentration required for 50% inhibition of renin at 10e-6 M of the compound
Sus scrofa [6] = species: Sus scrofa; assay: Concentration required for 50% inhibition of porcine kidney renin at 10e-7 nM of the compound
Renin (Homo sapiens) = biological target: T2, Renin (Homo sapiens) (UniProt P00797); assay: Concentration required for 50% inhibition of human plasma renin at 10e-6 nM of the compound; type: cell-free
T2 sequence (whole entry): T1 sequence (P00797 whole entry)

Sus scrofa [7] = species: Sus scrofa; assay: Concentration required for 50% inhibition of porcine kidney renin at 10e-7 (nM) concentration
Sus scrofa [8] = species: Sus scrofa; assay: Concentration required for 50% inhibition of porcine kidney renin at 10e-7 nM concentration
[9] = system: Renin (Canis lupus familiaris); assay: Concentration required for 50% inhibition of renin at 10e-6 nM concentration
[10] = buffer, pH 7.4
Description: Solubility (phosphate buffer, pH 7.4)

Sus scrofa [11] = species: Sus scrofa; assay: Concentration required for 50% inhibition of porcine kidney renin; type: functional

SMILES	solubility (physchem [1])	solubility (physchem [2])	logD [4]	IC50 (Renin)	further results
CC(C)CC(NC(=O)[C@H](Cc1cnc[nH]1)NC(=O)[C@H](Cc1ccccc1)NC(=O)OC(C)(C)C)C(O)CC(=O)N[C@@H](CC(C)C)C(=O)NCc1cccc(CN)c1 (stereo partly specified)	880 µM (≈ 696 µg/mL)	1400 µM (≈ 1110 µg/mL)	1.89	9 nM	IC50 [3]: 110 nM; IC50 (Renin (Sus scrofa)): 54 nM
CC(C)CC(NC(=O)[C@H](Cc1c[nH]cn1)NC(=O)[C@H](Cc1ccccc1)NC(=O)OC(C)(C)C)C(O)CC(=O)N[C@@H](CC(C)C)C(=O)NCCC(N)C(=O)O (stereo in doubt; 16)	–	–	–	–	inhibition [5]: 15%; inhibition (Sus scrofa [6]): 0%; inhibition (Renin (Homo sapiens)): 25%
CC(C)CC(NC(=O)[C@H](Cc1c[nH]cn1)NC(=O)[C@H](Cc1ccccc1)NC(=O)OC(C)(C)C)C(O)CC(=O)N[C@@H](CC(C)C)C(=O)NCc1cc[n+]([O-])cc1 (stereo partly specified)	–	–	–	–	inhibition (Sus scrofa [7]): 29%
CC(C)CC(NC(=O)[C@H](Cc1c[nH]cn1)NC(=O)[C@H](Cc1ccccc1)NC(=O)OC(C)(C)C)C(O)CC(=O)N[C@@H](CC(C)C)C(=O)N1CCN(Cc2ccccc2)CC1 (stereo partly specified)	< 10 µM	< 10 µM	> 2	127 nM	IC50 [3]: 310 nM; IC50 (Renin (Sus scrofa)): 280 nM
CC(C)CC(NC(=O)[C@H](Cc1cnc[nH]1)NC(=O)[C@H](Cc1ccccc1)NC(=O)OC(C)(C)C)C(O)CC(=O)N[C@@H](CC(C)C)C(=O)NCCCN(CCO)CCO (stereo partly specified)	960 µM (≈ 784 µg/mL)	4300 µM (≈ 3510 µg/mL)	1.4	170 nM	IC50 (Sus scrofa [11]): 900 nM

Now from value to molecule, other results behind:

solubility (physchem [1])	solubility (physchem [2])	logD [4]	IC50 (Renin)	SMILES	further results
390 µM (≈ 331 µg/mL)	1500 µM (≈ 1270 µg/mL)	1.83	880 nM	CC(C)CC(NC(=O)[C@H](Cc1c[nH]cn1)NC(=O)[C@H](Cc1ccccc1)NC(=O)OC(C)(C)C)C(O)CC(=O)N[C@@H](CC(C)C)C(=O)NC(Cc1cccc(CN)c1)C(=O)O (stereo partly specified)	inhibition (Sus scrofa [8]): 0%; inhibition [9]: 18%
3400 µM (≈ 2630 µg/mL)	–	1.03	–	CC(C)CC(NC(=O)[C@H](Cc1c[nH]cn1)NC(=O)[C@H](Cc1ccccc1)NC(=O)OC(C)(C)C)C(O)CC(=O)N[C@@H](CC(C)C)C(=O)NCCC(N)C(=O)O (stereo in doubt; 17)	S [10]: 1400 µM
740 µM (≈ 596 µg/mL)	2200 µM (≈ 1770 µg/mL)	1.22	–	CC(C)CC(NC(=O)[C@H](Cc1c[nH]cn1)NC(=O)[C@H](Cc1ccccc1)NC(=O)OC(C)(C)C)C(O)CC(=O)N[C@@H](CC(C)C)C(=O)NC(C(=O)O)c1ccccc1 (stereo partly specified) (Boc-FH[X1]L[ξPhg]-OH)	inhibition [5]: 45%; inhibition (Sus scrofa [6]): 0%; inhibition (Renin (Homo sapiens)): 44%
